{
  "source": "patent US20110171138A1",
  "about": "“SUBSTANTIALLY PURE DEFERASIROX AND PROCESSES FOR THE PREPARATION THEREOF” (ACTAVIS GROUP PTC EHF, priority 2008, published 2011)",
  "origin": "cited, not measured here",
  "settings": "in water and in acid medium; the solubility increasing with pH",
  "data": [
    {"smiles": "O=C(O)c1ccc(-n2nc(-c3ccccc3O)nc2-c2ccccc2O)cc1", "note": "[Deferasirox, 4-[3,5-Bis(2-hydroxyphenyl)-1H-1,2,4-triazol-1-yl]benzoic acid]", "values": [
      {"measurement": "solubility", "result": "practically insoluble"}
    ]}
  ]
}
